Measured values from patent US20220227737A1, “NOVEL OXALYL PIPERAZINES ACTIVE AGAINST THE HEPATITIS B VIRUS (HBV)” (AiCuris GmbH & Co. KG, priority 2019, published 2022).

Key:
HBV = HBV replication assay: HBV DNA from the supernatants of HepAD38 cells; assay type: cell-based; settings: Hepatitis B virus, 144 h, HBV DNA in supernatant at day 6, read-out: Cell Activity
Method: Determination of HBV DNA from the Supernatants of HepAD38 Cells
The anti-HBV activity was analysed in the stable transfected cell line HepAD38, which has been described to secrete high levels of HBV virion particles (Ladner et al., 1997). In brief, HepAD38 cells were cultured at 37° C. at 5% CO2 and 95% humidity in 200 μl maintenance medium, which was Dulbecco's modified Eagle's medium/Nutrient Mixture F-12 (Gibco, Karlsruhe), 10% fetal bovine serum (PAN Biotech Aidenbach) supplemented with 50 μg/ml penicillin/streptomycin (Gibco, Karlsruhe), 2 mM L-glutamine (PAN Biotech, Aidenbach), 400 μg/ml G418 (AppliChem, Darmstadt) and 0.3 μg/ml tetracycline. Cells were subcultured once a week in a 1:5 ratio, but were usually not passaged more than ten times. For the assay 60,000 cells were seeded in maintenance medium without any tetracycline into each well of a 96-well plate and treated with serial half-log dilutions of test compound. To minimize edge effects the outer 36 wells of the plate were not used but were filled with assay medium. On each assay plate six wells for the virus control (untreated HepAD38 cells) and six wells for the cell control (HepAD38 cells treated with 0.3 μg/ml tetracycline) were allocated, respectively. In addition, one plate set with reference inhibitors like BAY 41-4109, entecavir, and lamivudine instead of screening compounds were prepared in each experiment. In general, experiments were performed thrice in triplicates. At day 6 HBV DNA from 100 μl filtrated cell culture supernatant (AcroPrep Advance 96 Filter Plate, […] Supor membran, PALL GmbH, Dreieich) was automatically purified on the MagNa Pure LC instrument using the MagNA Pure 96 DNA and Viral NA Small Volume Kit (Roche Diagnostics, Mannheim) according to the instructions of the manufacturer. EC50 values were calculated from relative copy numbers of HBV DNA In brief, 5 μl of the 100 μl eluate containing HBV DNA were subjected to PCR LC480 Probes Master Kit (Roche) together with 1 μM antisense primer […], 0.5 μM sense primer […], 0.3 μM hybprobes […]-FL and LC640-[…]-PH (TIBMolBiol, Berlin) to a final volume of […]. The PCR was performed on the Light Cycler 480 real time system (Roche Diagnostics, Mannheim) using the following protocol: Pre-incubation for 1 min at 95° C., amplification: 40 cycles×(10 sec at 95° C., 50 sec at 60° C., 1 sec at 70° C.), cooling for 10 sec at 40° C. Viral load was quantitated against known standards using HBV plasmid DNA of pCH-9/3091 (Nassal et al., 1990, Cell 63: 1357-1363) and the LightCycler 480 SW 1.5 software (Roche Diagnostics, Mannheim) and EC50 values were calculated using non-linear regression with GraphPad Prism 6 (GraphPad Software Inc., La Jolla, USA).

[1] = Cell viability assay (AlamarBlue); settings: human, HepAD38 cells
[2] = molecular target: T1, C-terminal truncated core protein (HBV core dimer, BODIPY-FL labelled) (UniProt P03146); assay: Biochemical capsid assembly assay (fluorescence quenching)
T1 construct: fused on or other part: One added cysteine at position 150, labelled with BODIPY-FL maleimide; The C-terminal arginine-rich domain is absent
In short: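 E. coli-expressed HBV core 1–149 plus Cys150 dimer, BODIPY-FL-labelled, at 1.0–2.0 μM in 50 mM HEPES pH 7.5, 0.5% DMSO. 8-point compound series; assembly started with NaCl, fluorescence quenching (ex 477/em 525 nm) read after 6 min. EC50 by non-linear regression versus 2.5 M and 0 M NaCl controls.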

T1 sequence (P03146 whole entry, the tested form may be a part): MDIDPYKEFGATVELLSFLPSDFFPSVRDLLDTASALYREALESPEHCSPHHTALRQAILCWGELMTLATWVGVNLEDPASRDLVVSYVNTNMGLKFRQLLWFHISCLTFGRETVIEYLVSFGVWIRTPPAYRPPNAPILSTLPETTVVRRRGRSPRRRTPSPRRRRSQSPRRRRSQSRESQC

Molecule CCCCNC(=O)C(=O)N1CCN(C(=O)c2cc3ccccc3[nH]2)CC1 [Example 6, N-butyl-2-[4-(1H-indole-2-carbonyl)piperazin-1-yl]-2-oxoacetamide] has an EC50 (HBV) of under 1 µM, a CC50 at 6 days [1] of over 100 µM and an IC50 [2] of under 5 µM.
CC(O)CCCNC(=O)C(=O)N1CCN(C(=O)c2cc3c(F)cc(F)cc3[nH]2)CC1 (stereo not drawn) [Example 60, 2-(4-(4,6-difluoro-1H-indole-2-carbonyl)piperazin-1-yl)-N-(4-hydroxypentyl)-2-oxoacetamide] gave an EC50 (HBV) of under 1 µM, a CC50 at 6 days [1] of over 100 µM and an IC50 [2] of under 5 µM.
Molecule C[C@@H](O)CNC(=O)C(=O)N1CCN(C(=O)c2cc3ccccc3[nH]2)CC1 [Example 2, (R)-2-(4-(1H-indole-2-carbonyl)piperazin-1-yl)-N-(2-hydroxypropyl)-2-oxoacetamide] has an EC50 (HBV) of 1 to 10 µM, a CC50 at 6 days [1] of over 100 µM and an IC50 [2] of 5 to 10 µM.
